Source: US9562035B2, “Benzamide derivative useful as FASN inhibitors for the treatment of cancer” (Janssen Pharmaceutica NV, priority 2013, dated 2017)

Key:
[1] = target: T1, hFASN enzyme (full length) (Homo sapiens, UniProt P49327); experiment: Fatty Acid Synthase (FASN) Inhibition Scintillation Proximity Assay; assay type: biochemical; conditions: for IC50: mean where tested more than once, ~ = standard error of pIC50 larger than 0.5; for inhibition at 10 µM: read-out: FASN % Effect @1E−05M
T1 construct: 10 μL hFASN enzyme (full length, 300 ng, purified in house); made in house
In short: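 Purified full-length human FASN (300 ng) incubated 60 min at room temperature with NADPH, [3H]-acetyl-CoA and malonyl-CoA in 100 mM KH2PO4 pH 7.5, 1 mM DTT; compound at 30 μM to 0.01 μM. [3H]-palmitate captured by SPA imaging beads; IC50 from 4-parameter fit, reported as pIC50.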

[2] = system: LNCaP_Vancouver prostate cells; experiment: In Vitro LNCaP Vancouver Prostate Cell Proliferation Assay in Lipid Reduced Medium; assay type: cell-based; conditions: lipid reduced serum, 96 h, read-out: Vancouver Cells pIC50 (converted)
Description: LNCaP_Vancouver prostate cells were obtained from the Vancouver Prostate Cancer Centre. Cells were maintained in RPMI-1640, 10% Fetal Calf Serum (FCS, Hyclone), 2 mM glutamine and 50 μg/ml Gentamicin.
For the proliferation experiment 1500 LNCaP_Vancouver cells per well were seeded in a 384-well black with clear bottom plate (costar 3712BC) in 40 μl RPMI-1640, 10% Lipid reduced serum (LRS, Hyclone), 50 μg/ml Gentamicin and 2 mM Glutamine and incubated at 37° C., 5% CO2. The next day 10 μl of test compound/DMSO diluted in medium was added (3E-5M, 1E-5M, 3E-6M, 1E-6M, 3E-7M, 1E-7M, 3E-8M, 1E-8M final concentration). Compounds were tested in duplicate. After 96 h incubation at 37° C., 5% CO2 25 μl ATP-glow mix was added. The plate was incubated for 30 min at 37° C. and luminescence was measured with the Envision.
pIC50 values were calculated as follows. Raw data generated by the instruments were normalized to % Controlmin values, which were calculated as: % Controlmin=100*(x−mLC)/(mHC−mLC),
where mLC and mHC are the means of the low control wells and high control wells on the plate, after manual exclusion of outliers. The relation between the % Controlmin values and concentration was fitted to a 4-parameter logistic curve using a non-linear least squares regression method to determine the pIC50 value. Outlying data points were excluded manually to get a correct fit. The pIC50 corresponds to −log 10(IC50), if the IC50 is expressed in molar units (http://www.ncbi.nlm.nih.gov/books/NBK91994). The IC50 parameter was always determined by non-linear regression, but one or more of the other parameters may have been held fixed on a relevant input value, such as 0 for the bottom values.
For dose response curves with FASN inhibitors in LNCaP_Vancouver or PC-3M-Luc_C6 cells the curves bottom out around 30 to 40% of the control value. A standard fit PL2, forcing the lower bound to this level was used.
Representative compounds of the present invention were tested according to the procedure as described in Biological Example 4a and 4b above, with results as listed in Table BIO-4, below.

[3] = system: HCV 1b bicistronic subgenomic luciferase reporter replicon clone ET; experiment: Antiviral Activity Against HCV (replicon cells, luciferase read-out); assay type: cell-based; conditions: Hepatitis C virus, 72 h; HCV 1b replicon clone ET, 3-day incubation, firefly luciferase read-out
Description: The anti-HCV activity of compounds was tested in cell culture with replicon cells generated using reagents from the Bartenschlager laboratory (the HCV 1b bicistronic subgenomic luciferase reporter replicon clone ET). The protocol included a 3-day incubation of 2500 replicon cells in a 384-well format in a nine-point 1:4 dilution series of the compound. Dose response curves were generated based on the firefly luciferase read-out.

[4] = Toxicity Huh7-ATP (cytotoxicity alongside the HCV replicon assay); conditions: human, Huh7 cells

T1 sequence (P49327 whole entry): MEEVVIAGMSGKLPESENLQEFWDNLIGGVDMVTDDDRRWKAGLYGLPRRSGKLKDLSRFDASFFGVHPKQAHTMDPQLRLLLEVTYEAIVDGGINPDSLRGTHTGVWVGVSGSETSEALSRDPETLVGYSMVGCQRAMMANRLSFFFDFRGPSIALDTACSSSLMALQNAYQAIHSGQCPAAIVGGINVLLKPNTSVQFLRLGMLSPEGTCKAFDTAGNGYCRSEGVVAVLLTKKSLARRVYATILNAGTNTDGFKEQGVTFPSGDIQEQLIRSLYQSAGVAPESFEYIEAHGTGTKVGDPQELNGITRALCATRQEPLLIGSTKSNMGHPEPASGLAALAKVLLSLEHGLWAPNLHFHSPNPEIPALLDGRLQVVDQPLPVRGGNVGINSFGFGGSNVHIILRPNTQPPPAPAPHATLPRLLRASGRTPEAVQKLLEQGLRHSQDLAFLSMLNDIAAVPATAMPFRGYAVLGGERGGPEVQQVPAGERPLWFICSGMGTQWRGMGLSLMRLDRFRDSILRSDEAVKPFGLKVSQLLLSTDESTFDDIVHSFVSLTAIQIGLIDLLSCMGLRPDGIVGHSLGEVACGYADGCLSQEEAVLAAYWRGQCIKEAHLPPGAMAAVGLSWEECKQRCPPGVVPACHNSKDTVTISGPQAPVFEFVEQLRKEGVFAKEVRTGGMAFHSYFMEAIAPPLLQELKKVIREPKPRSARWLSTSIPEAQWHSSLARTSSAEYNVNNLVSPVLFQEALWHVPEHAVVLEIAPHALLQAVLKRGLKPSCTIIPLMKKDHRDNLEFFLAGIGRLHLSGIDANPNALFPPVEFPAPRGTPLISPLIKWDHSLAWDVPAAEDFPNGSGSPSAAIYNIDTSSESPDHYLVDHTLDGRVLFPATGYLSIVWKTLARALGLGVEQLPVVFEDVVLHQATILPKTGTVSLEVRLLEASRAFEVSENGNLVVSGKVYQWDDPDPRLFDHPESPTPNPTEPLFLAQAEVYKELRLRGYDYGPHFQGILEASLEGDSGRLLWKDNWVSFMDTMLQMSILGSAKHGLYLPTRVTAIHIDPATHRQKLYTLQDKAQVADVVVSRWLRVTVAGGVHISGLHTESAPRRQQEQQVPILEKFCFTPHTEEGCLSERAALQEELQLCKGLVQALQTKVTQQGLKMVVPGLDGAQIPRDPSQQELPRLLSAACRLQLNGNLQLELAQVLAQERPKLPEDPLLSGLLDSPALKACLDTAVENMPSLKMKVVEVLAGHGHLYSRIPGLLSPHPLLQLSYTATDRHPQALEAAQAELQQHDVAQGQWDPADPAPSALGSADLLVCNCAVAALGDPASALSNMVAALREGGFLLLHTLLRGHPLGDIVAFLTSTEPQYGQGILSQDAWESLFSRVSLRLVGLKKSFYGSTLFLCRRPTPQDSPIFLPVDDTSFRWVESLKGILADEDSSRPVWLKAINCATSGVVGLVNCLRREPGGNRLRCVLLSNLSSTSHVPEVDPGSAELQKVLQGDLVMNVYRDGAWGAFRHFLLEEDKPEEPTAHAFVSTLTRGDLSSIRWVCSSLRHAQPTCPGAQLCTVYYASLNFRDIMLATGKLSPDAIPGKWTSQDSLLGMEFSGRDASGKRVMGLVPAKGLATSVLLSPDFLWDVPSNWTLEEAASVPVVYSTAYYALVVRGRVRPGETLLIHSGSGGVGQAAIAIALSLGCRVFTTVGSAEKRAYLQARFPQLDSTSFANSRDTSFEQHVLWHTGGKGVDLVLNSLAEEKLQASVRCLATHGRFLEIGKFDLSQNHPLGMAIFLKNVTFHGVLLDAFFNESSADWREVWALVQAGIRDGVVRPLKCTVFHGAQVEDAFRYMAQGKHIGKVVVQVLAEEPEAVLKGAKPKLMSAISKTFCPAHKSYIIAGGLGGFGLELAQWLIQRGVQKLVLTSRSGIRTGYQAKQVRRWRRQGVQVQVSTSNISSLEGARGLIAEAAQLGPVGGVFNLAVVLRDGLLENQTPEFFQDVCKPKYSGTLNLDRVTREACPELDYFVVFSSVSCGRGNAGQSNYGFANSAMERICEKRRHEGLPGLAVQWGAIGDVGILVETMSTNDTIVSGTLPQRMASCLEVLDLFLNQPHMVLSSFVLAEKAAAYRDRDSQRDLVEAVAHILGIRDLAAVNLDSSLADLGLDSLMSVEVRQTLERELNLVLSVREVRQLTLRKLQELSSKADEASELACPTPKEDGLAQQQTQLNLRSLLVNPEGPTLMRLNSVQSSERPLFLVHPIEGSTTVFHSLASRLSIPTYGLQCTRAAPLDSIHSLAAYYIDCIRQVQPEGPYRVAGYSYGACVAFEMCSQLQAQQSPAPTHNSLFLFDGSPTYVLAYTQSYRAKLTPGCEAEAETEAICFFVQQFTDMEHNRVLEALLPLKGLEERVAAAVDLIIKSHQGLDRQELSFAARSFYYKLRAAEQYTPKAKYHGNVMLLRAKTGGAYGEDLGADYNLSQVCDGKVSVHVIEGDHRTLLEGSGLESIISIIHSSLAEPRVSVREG

`CC(C)N(C)c1ccc(C(=O)N2CCC(c3ccc(-c4cnn(C)c4)cc3)CC2)cc1NC(=O)c1ccc(Cl)nc1` [Compound 274, 6-chloro-N-(2-(isopropyl(methyl)amino)-5-(4-(4-(1-methyl-1H-pyrazol-4-yl)phenyl)piperidine-1-carbonyl)phenyl)nicotinamide] gave an IC50 [1] of 437 nM, an inhibition at 10 µM [1] of 88% and an IC50 [2] of 1950 nM.

Compound `CN(C)c1ccc(C(=O)N2CCC(c3ccc(-c4cnn(C)c4)cc3)CC2)cc1NC(=O)c1ccc(Cl)nc1` [Compound 275, 6-chloro-N-(2-(dimethylamino)-5-(4-(4-(1-methyl-1H-pyrazol-4-yl)phenyl)piperidine-1-carbonyl)phenyl)nicotinamide] has an IC50 [1] of 56.2 nM, an inhibition at 10 µM [1] of 99% and an IC50 [2] of 692 nM.

Compound `CC(C)Nc1ccc(C(=O)Nc2cc(C(=O)N3CCC(c4ccc(-c5cnn(C)c5)cc4)CC3)ccc2N(C)C(C)C)cn1` [Compound 276, N-(2-(isopropyl(methyl)amino)-5-(4-(4-(1-methyl-1H-pyrazol-4-yl)phenyl)piperidine-1-carbonyl)phenyl)-6-(isopropylamino)nicotinamide] has an IC50 [1] of 372 nM, an inhibition at 10 µM [1] of 93% and an IC50 [2] of 1380 nM.

For `COCCN(C)c1ccc(C(=O)N2CCC(c3ccc(-c4cnn(C)c4)cc3)CC2)cc1NC(=O)C1CC1` [Compound 278, N-(2-((2-methoxyethyl)(methyl)amino)-5-(4-(4-(1-methyl-1H-pyrazol-4-yl)phenyl)piperidine-1-carbonyl)phenyl)cyclopropanecarboxamide], the IC50 [1] was 813 nM, the inhibition at 10 µM [1] was 85% and the IC50 [2] was 6170 nM.

For `CC(C)Nc1ccc(C(=O)Nc2cc(C(=O)N3CCC(c4ccc(-c5cnn(C)c5)cc4)CC3)ccc2N(C)C)cn1` [Compound 280, N-(2-(dimethylamino)-5-(4-(4-(1-methyl-1H-pyrazol-4-yl)phenyl)piperidine-1-carbonyl)phenyl)-6-(isopropylamino)nicotinamide], the IC50 [1] was 70.8 nM, the inhibition at 10 µM [1] was 99% and the IC50 [2] was 372 nM.

In the case of `COCCN(C)c1ccc(C(=O)N2CCC(c3ccc(-c4cnn(C)c4)cc3)CC2)cc1NC(=O)c1ccc(NC(C)C)nc1` [Compound 281, 6-(isopropylamino)-N-(2((2-methoxyethyl)(methyl)amino)-5-(4-(4-(1-methyl-1H-pyrazol-4-yl)phenyl)piperidine-1-carbonyl)phenyl)nicotinamide], the IC50 [1] is reported as 457 nM, the inhibition at 10 µM [1] is reported as 93% and the IC50 [2] is reported as ~1350 nM.

`COCCNc1ccc(C(=O)N2CCC(c3ccc(-c4cnn(C)c4)cc3)CC2)cc1NC(=O)c1ccc(NC(C)C)nc1` [Compound 282, 6-(isopropylamino)-N-(2-((2-methoxyethyl)amino)-5-(4-(4-(1-methyl-1H-Pyrazol-4-yl)phenyl)piperidine-1-carbonyl)phenyl)nicotinamide] showed an IC50 [1] of 70.8 nM, an inhibition at 10 µM [1] of 99% and an IC50 [2] of 1020 nM.

With `CC(C)Nc1ccc(C(=O)Nc2cc(C(=O)N3CCC(c4ccc(-c5cnn(C)c5)cc4)CC3)ccc2NC2CC2)cn1` [Compound 283, N-(2-(cyclopropylamino)-5-(4-(4-(1-methyl-1H-pyrazol-4-yl)phenyl)piperidine-1-carbonyl)phenyl)-6-(isopropylamino)nicotinamide] the IC50 [1] was 110 nM, the inhibition at 10 µM [1] was 98% and the IC50 [2] was 1050 nM.

Work on `CC(C)Nc1ccc(C(=O)Nc2cc(C(=O)N3CCC(c4ccc(-c5cnn(C)c5)cc4)CC3)ccc2NC(C)C)cn1` [Compound 284, 6-(isopropylamino)-N-(2-(isopropylamino)-5-(4-(4-(1-methyl-1H-pyrazol-4-yl)phenyl)piperidine-1-carbonyl)phenyl)nicotinamide] yielded an IC50 [1] of 126 nM, an inhibition at 10 µM [1] of 95% and an IC50 [2] of 1020 nM.

`CC(C)Nc1ccc(C(=O)Nc2cc(C(=O)N3CCC(c4ccc(-c5cnn(C)c5)cc4)CC3)ccc2N)cn1` [Compound 285, N-(2-amino-5-(4-(4-(1-methyl-1H-pyrazol-4-yl)phenyl)piperidine-1-carbonyl)phenyl)-6-(isopropylamino)nicotinamide] showed an IC50 [1] of ~166 nM, an inhibition at 10 µM [1] of 74% and an IC50 [2] of ~537 nM.

For `COCCNc1ccc(C(=O)N2CCC(c3ccc(-c4cnn(C)c4)cc3)CC2)cc1NC(=O)C1CC1` [Compound 286, N-(2-((2-methoxyethyl)amino)-5-(4-(4-(1-methyl-1H-pyrazol-4-yl)phenyl)piperidine-1-carbonyl)phenyl)cyclopropanecarboxamide], the IC50 [1] was 513 nM, the inhibition at 10 µM [1] was 91% and the IC50 [2] was 4070 nM.

Compound `CC(C)Nc1ccc(C(=O)Nc2cc(C(=O)N3CCC(c4ccc(-c5cnn(C)c5)cc4)CC3)ccc2N(C)C2CC2)cn1` [Compound 287, N-(2-(cyclopropyl(methyl)amino)-5-(4-(4-(1-methyl-1H-pyrazol-4-yl)phenyl)piperidine-1-carbonyl)phenyl)-6-(isopropylamino)nicotinamide] has an IC50 [1] of 100 nM, an inhibition at 10 µM [1] of 98% and an IC50 [2] of 977 nM.

Work on `CN(c1ccc(C(=O)N2CCC(c3ccc(-c4cnn(C)c4)cc3)CC2)cc1NC(=O)C1CC1)C1CC1` [Compound 288, N-(2-(cyclopropyl(methyl)amino)-5-(4-(4-(1-methyl-1H-pyrazol-4-yl)phenyl)piperidine-1-carbonyl)phenyl)cyclopropanecarboxamide] yielded an IC50 [1] of 871 nM, an inhibition at 10 µM [1] of 88% and an IC50 [2] of ~9770 nM.

Work on `Cc1ccc(C(=O)N2CCC(c3ccc(-c4cnn(C)c4)cc3)CC2)cc1NC(=O)c1ccc(NC(C)C)nc1` [Compound #32, 6-(isopropylamino)-N-(2-methyl-5-(4-(4-(1-methyl-1H-pyrazol-4-yl)phenyl)piperidine-1-carbonyl)phenyl)nicotinamide] yielded an IC50 [1] of 26.9 nM, an inhibition at 10 µM [1] of 104% and an IC50 [2] of 93.3 nM. For the same compound, the EC50 [3] was 14.6 nM and the CC50 [4] was > 25000 nM.

`Cc1ccc(C(=O)N2CC(c3ccc(-c4cnn(C)c4)cc3)C2)cc1NC(=O)c1ccc(N2CCOCC2)nc1` [Compound #66, N-(2-methyl-5-(3-(4-(1-methyl-1H-pyrazol-4-yl)phenyl)azetidine-1-carbonyl)phenyl)-6-morpholinonicotinamide] showed an IC50 [1] of 9.55 nM, an inhibition at 10 µM [1] of 118% and an IC50 [2] of 29.5 nM.

`Cc1ccc(C(=O)N2CC(c3ccc(-c4cnn(C)c4)cc3)C2)cc1NC(=O)c1ccc(N(C)C(C)C)nc1` [Compound #78, 6-(isopropyl(methyl)amino)-N-(2-methyl-5-(3-(4-(1-methyl-1H-pyrazol-4-yl)phenyl)azetidine-1-carbonyl)phenyl)nicotinamide] showed an IC50 [1] of ~10.2 nM, an inhibition at 10 µM [1] of 120% and an IC50 [2] of ~34.7 nM.

Compound `CNc1ccc(C(=O)N2CCC(c3ccc(-c4cnn(C)c4)cc3)CC2)cc1NC(=O)c1ccc(NC(C)C)nc1` [Compound #279, 6-(isopropylamino)-N-(5-(4-(4-(1-methyl-1H-pyrazol-4-yl)phenyl)piperidine-1-carbonyl)-2-(methylamino)phenyl)nicotinamide] has an IC50 [1] of 41.7 nM, an inhibition at 10 µM [1] of 98% and an IC50 [2] of 263 nM.
